Activity calls are given as the source filed them. The rule behind the calls is not given here.

The species named for assay [1] is Homo sapiens. Put plainly: Binding affinity to human His6-tagged 14-3-3 protein sigma C17 deletion mutant expressed in Escherichia coli BL21 (DE3) at 500 uM by WaterLOGSY NMR analysis.
The species named for assay [2] is Homo sapiens. Put plainly: Binding affinity to 15N2H labelled human 14-3-3 protein sigma C17 deletion mutant at top of helices alphaH and alphaI assessed as chemical shift perturbations in resonances at 2000 uM by 1H-15N TROSY-HSQC 2D NMR analysis.
Assay [3] is filed under the species Homo sapiens. Briefly: Binding affinity to 15N2H labelled human 14-3-3 protein sigma C17 deletion mutant at dimer interface assessed as chemical shift perturbations in resonances at 2000 uM by 1H-15N TROSY-HSQC 2D NMR analysis.

As to `Cc1ccc(B(O)O)cc1Cl`, the outcome in the assay listed under Homo sapiens [1] and in the assay filed under Homo sapiens [2] was Active.
Take `NC(=O)c1cc(Cl)cc(Cl)c1O`: the result in the assay listed under Homo sapiens [1] and in the assay listed under Homo sapiens [3] was Active.
Take `CC12CC3(C)CC(C)(C1)CC(C(=O)O)(C2)C3`: the result in the assay filed under Homo sapiens [1] and in the assay listed under Homo sapiens [2] was Active.

For the origin of these results see ChEMBL document CHEMBL4373661, “Set-up and screening of a fragment library targeting the 14-3-3 protein interface” (Medchemcomm, 2019).
